In patent US20110059948A1, “QUINOLINE, NAPHTHALENE AND CONFORMATIONALLY CONSTRAINED QUINOLINE OR NAPHTHALENE DERIVATIVES AS ANTI-MYCOBACTERIAL AGENTS” (priority 2008, published 2011):
≈ marks a conversion by molar mass, not a printed value. Where two headings read alike, the source gives them in different places.

Tests used:
[1] = tested on: M. Tuberculosis strain (H37RV); conditions: Janssen WO2004/011436; cited from earlier work
[2] = tested on: clinical isolates generally susceptible to common tubercular agents; experiment: microbe, parasite or virus in culture; format: cell-based, Mycobacterium tuberculosis; conditions: for MIC M. tuberculosis Sensitive (n = 20): clinical isolates, n = 20 strains tested
[3] = tested on: M. tuberculosis H37RV ATCC 27294; experiment: In vitro growth inhibition assay, BACTEC 460 TB system; format: cell-based, Mycobacterium tuberculosis
M. kansasii = experiment: In vitro agar dilution assay (MIC); format: cell-based, Mycobacterium kansasii; conditions: n = 2 strains tested
[4] = tested on: M. Tuberculosis strain (H37RV); experiment: In vitro agar dilution assay (MIC, NCCLS-M24-T2); format: cell-based, Mycobacterium tuberculosis; conditions: for MIC: Mycobacterium tuberculosis, ATCC 27294 / H37Rv, read-out: MIC against M. tuberculosis (H37RV ATCC27294)
M. fortuitum = experiment: In vitro agar dilution assay (MIC); format: cell-based, Mycobacterium fortuitum; conditions: n = 2 strains tested
[5] = tested on: M. avium-intracellular Complex; experiment: In vitro agar dilution assay (MIC); format: cell-based, Mycobacterium avium-intracellular complex; conditions: for MIC M. avium-intracellulare Complex (n = 10): n = 10 strains tested
[6] = agar dilution, Middlebrook 7H10

Work on `COC(=O)C(C(=O)N1CCOCC1)C(c1ccccc1)c1cc2cc(Br)ccc2nc1OC` (stereo not drawn) [Example 1] [listing 1 of 2 here] yielded a melting point of 187.5 to 189.5 °C.
For `COc1nc2ccc(Br)cc2cc1C(c1ccccc1)[C@@](O)(CCN(C)C)c1cccc2ccccc12` (stereo partly drawn) [Example R207910], the “MIC value against the M. Tuberculosis strain (H37RV)” value [1] is given as 0.07 µg/mL (≈ 0.126 µM).
`COC(=O)C(C(=O)N1CCOCC1)C(c1ccccc1)c1cc2cc(Br)ccc2nc1OC` (stereo not drawn) [Example 1] [listing 2 of 2 here] gave a melting point of 206 to 208 °C.
In the case of `COc1cccc(NC(=O)Nc2ccc3nc(Oc4ccc(F)cc4C(C)O)c(Cc4ccccc4)cc3c2)c1` (stereo not drawn) [Example 26], the “MIC M. tuberculosis Sensitive (n = 20)” value [2] is reported as under 3.125 µg/mL, the “mark “a” at the serial number (99% inhibition at <4 μg/ml), Tables 2-4” value [3] is reported as 26a (Compounds marked with “a” have shown 99% inhibition at <4 μg/ml) and the “MIC M. kansasii (n = 2)” value (M. kansasii) is reported as under 4.0 µg/mL. For the same molecule, the “MIC against M. tuberculosis (H37RV ATCC27294)” value (“MIC against M. tuberculosis” for short) [4, 6] was under 3.125 µg/mL, the “MIC M. fortuitum (n = 2)” value (M. fortuitum) was under 4.0 µg/mL and the “MIC M. avium-intracellulare Complex (n = 10)” value [5] was under 4.0 µg/mL.
Molecule `COc1nc2ccc(Br)cc2cc1C(Nc1ccc2oc(=O)ccc2c1)c1ccccc1` (racemic) has a melting point of 88 to 89 °C.
With `CC(c1cc(F)ccc1Oc1nc2ccc(-n3cc(-c4ccccc4)nn3)cc2cc1Cc1ccccc1)n1ccnc1` (stereo not drawn) [Example 23] the “MIC M. tuberculosis Sensitive (n = 20)” value [2] was under 3.125 µg/mL, the “mark “a” at the serial number (99% inhibition at <4 μg/ml), Tables 2-4” value [3] was 23a (Compounds marked with “a” have shown 99% inhibition at <4 μg/ml) and the “MIC M. kansasii (n = 2)” value (M. kansasii) was under 4.0 µg/mL. The “MIC against M. tuberculosis” value [4, 6] was under 3.125 µg/mL, the “MIC M. fortuitum (n = 2)” value (M. fortuitum) was under 4.0 µg/mL and the “MIC M. avium-intracellulare Complex (n = 10)” value [5] was under 4.0 µg/mL.
Molecule `COc1nc2ccc(Br)cc2cc1C(c1ccccc1)n1ccnc1` (racemic) has a melting point of 161 to 162 °C.
For `COc1nc2ccc(Br)cc2cc1C(c1ccccc1)n1cccn1` (racemic), the melting point was 142 to 144 °C.
Molecule `CC(O)c1cc(F)ccc1Oc1nc2ccc(NC(=O)Nc3cccc([N+](=O)[O-])c3)cc2cc1Cc1ccccc1` (stereo not drawn) has a melting point of 217 to 219 °C.
For `CC(O)c1cc(F)ccc1Oc1nc2ccc(NC(=O)Nc3cccc([N+](=O)[O-])c3)cc2cc1Cc1ccccc1` (stereo not drawn) [Example 31], the “MIC M. tuberculosis Sensitive (n = 20)” value [2] was under 6.25 µg/mL, the “mark “a” at the serial number (99% inhibition at <4 μg/ml), Tables 2-4” value [3] was 31a (Compounds marked with “a” have shown 99% inhibition at <4 μg/ml) and the “MIC M. kansasii (n = 2)” value (M. kansasii) was over 8.0 µg/mL. For the same molecule, the “MIC against M. tuberculosis” value [4, 6] was under 3.125 µg/mL, the “MIC M. fortuitum (n = 2)” value (M. fortuitum) was over 8.0 µg/mL and the “MIC M. avium-intracellulare Complex (n = 10)” value [5] was over 8.0 µg/mL.
In the case of `CC(c1cc(F)ccc1Oc1nc2ccc(-n3cc(-c4ccccc4)nn3)cc2cc1Cc1ccccc1)n1ccnc1` (stereo not drawn), the melting point is reported as 118 to 120 °C.
In the case of `NNC(=O)c1ccncc1` [Isoniazid, reference compound], the MIC ([2]; Mycobacterium tuberculosis, read-out: MIC M. tuberculosis Sensitive (n = 20)) is reported as 0.25 µg/mL (≈ 1.82 µM), the MIC (M. kansasii; Mycobacterium kansasii, read-out: MIC M. kansasii (n = 2)) is reported as over 16 µg/mL and the MIC [4, 6] is reported as 0.25 µg/mL (≈ 1.82 µM). The MIC (M. fortuitum; Mycolicibacterium fortuitum, read-out: MIC M. fortuitum (n = 2)) was over 16 µg/mL and the MIC ([5]; Mycobacterium, read-out: MIC M. avium-intracellulare Complex (n = 10)) was over 16 µg/mL.
`COc1nc2ccc(Br)cc2c2c1C(C)(OCC(O)Cn1ccc(-c3ccc(C(F)(F)F)cc3)n1)c1ccccc1-2` (stereo not drawn) gave a melting point of 65 to 67 °C.
`CO[C@H]1/C=C/O[C@@]2(C)Oc3c(C)c(O)c4c(O)c(c(/C=N/N5CCN(C)CC5)c(O)c4c3C2=O)NC(=O)/C(C)=C\C=C\[C@H](C)[C@H](O)[C@@H](C)[C@@H](O)[C@@H](C)[C@H](OC(C)=O)[C@@H]1C` [Refampin, Rifampicin, reference compound] showed an MIC [4] of 0.25 µg/mL (≈ 0.304 µM).
For `ON=C1c2ccccc2-c2c1c(N1CCN(c3ccccn3)CC1)nc1ccc(Br)cc21` [Example 134], the “MIC M. tuberculosis Sensitive (n = 20)” value [2] was under 6.25 µg/mL, the “mark “a” at the serial number (99% inhibition at <4 μg/ml), Tables 5A-N, 6-10” value [3] was 134a (Compounds marked with “a” have shown 99% inhibition at <4 μg/ml) and the “MIC M. kansasii (n = 2)” value (M. kansasii) was over 8.0 µg/mL. The “MIC against M. tuberculosis” value [4, 6] was under 6.25 µg/mL, the “MIC M. fortuitum (n = 2)” value (M. fortuitum) was over 8.0 µg/mL and the “MIC M. avium-intracellulare Complex (n = 10)” value [5] was under 6.25 µg/mL.
